For data set [1], the target named is T1, Peroxisome proliferator-activated receptor gamma (Homo sapiens) (UniProt P37231).
T1 sequence (whole entry): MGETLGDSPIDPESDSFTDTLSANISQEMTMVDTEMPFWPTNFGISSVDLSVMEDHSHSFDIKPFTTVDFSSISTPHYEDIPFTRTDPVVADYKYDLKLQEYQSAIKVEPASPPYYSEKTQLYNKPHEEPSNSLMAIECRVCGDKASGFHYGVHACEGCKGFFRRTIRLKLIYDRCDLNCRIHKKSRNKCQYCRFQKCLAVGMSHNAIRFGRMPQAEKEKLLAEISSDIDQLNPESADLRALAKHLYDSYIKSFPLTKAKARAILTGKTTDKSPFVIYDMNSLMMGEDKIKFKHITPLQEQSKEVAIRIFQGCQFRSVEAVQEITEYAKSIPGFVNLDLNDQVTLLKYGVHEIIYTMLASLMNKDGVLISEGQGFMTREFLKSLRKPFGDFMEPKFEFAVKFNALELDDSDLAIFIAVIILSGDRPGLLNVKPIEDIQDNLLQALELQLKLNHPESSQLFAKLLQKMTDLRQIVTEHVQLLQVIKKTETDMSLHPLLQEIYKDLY
Briefly: Partial agonist activity at recombinant GST-tagged human PPAR-gamma ligand binding domain (E235 to Y505 residues) extracted from Escherichia coli BL21 (DE3) cells by TR-FRET assay. The following applies: filed as partial agonist.

For data set [2], the system named is 3T3-L1. The data set can be described thus: Inhibition of adipogenesis in mouse 3T3-L1 cells assessed as downregulation of CD36 gene expression at 1 uM measured after 48 hrs by RT-qPCR analysis. It is filed as functional, cell-based. (In general: Quantitative PCR measures a nucleic acid by following its amplification.)
Data set [3] has as its system 3T3-L1. The data set can be described thus: Inhibition of adipogenesis in mouse 3T3-L1 cells assessed as downregulation of FASN gene expression at 1 uM measured after 48 hrs by RT-qPCR analysis. It is filed as functional, cell-based.
A short description of data set [4]: Toxicity in male db/db mouse model assessed as effect on spleen weight at 2.5 to 10 mg/kg/day, ip administered for 4 weeks. The format is organism-based. The following applies: in vivo, 672 h, dose 2.5-10 mg/kg/day.
For data set [5], the system named is Mus musculus. The data set can be described thus: Antidiabetic activity in male db/db mouse model assessed as increase in ADIPOQ protein abundance in white adipose tissue at 2.5 to 10 mg/kg/day, ip administered for 4 weeks by Western blotting analysis. It is filed as functional, organism-based. Conditions: dose 2.5-10 mg/kg/day. Background: Immunoblotting shows a protein as a band on a membrane.

Data set [6] relates to Mus musculus. The data set can be described thus: Effect on pRb protein expression in male db/db mouse white adipose tissue at 2.5 to 10 mg/kg/day, ip administered for 4 weeks by Western blotting analysis. The format is functional, organism-based. The following applies: dose 2.5-10 mg/kg/day.
Data set [7] has as its system Mus musculus. Briefly: Antidiabetic activity in male db/db mouse model assessed as downregulation of C/EBPalpha gene expression in white adipose tissue at 2.5 to 10 mg/kg/day, ip administered for 4 weeks by RT-qPCR analysis. It is filed as functional, organism-based. Conditions: dose 2.5-10 mg/kg/day.

Activity calls are given as the source filed them. The calls are words filed in the database; no cut-off is given here.

`Cc1ccc(S(=O)(=O)Oc2ccc(S3(=O)=N[Se]c4cc(OS(=O)(=O)c5ccc(C)cc5)ccc43)cc2)cc1` (configuration not stated): the result (in data set [1]; in the data set with Mus musculus [5]; in the data set with Mus musculus [7]) was Active. The inhibition result in the data set with 3T3-L1 [2] and in the data set with 3T3-L1 [3] was “Active” throughout. Moreover, in data set [4], the Activity result is on record as “Non-toxic”. In the data set on Mus musculus [6], the outcome was inactive.

Values taken from ChEMBL document CHEMBL6087454, “Identification of Novel Organo-Se BTSA-Based Derivatives as Potent, Reversible, and Selective PPARγ Covalent Modulators for Antidiabetic Drug Discovery” (J Med Chem, 2025).
